Measurements reported in patent US4511560A, “Antibiotic substances DC-45, and their use as medicaments” (Kyowa Hakko Kogyo Kabushiki Kaisha, priority 1979, dated 1985).

Assays:
[1] = system: Sarcoma 180 solid tumour; test: Therapeutic effect on Sarcoma 180 solid tumour; assay type: in vivo, mice (male; ddy-strain); settings: 5.6 mg/kg, abdominally, single, day 7
Description: Mice (male; ddy-strain; weight about 20 g; each group consisting of 6 mice) were used as test animals. Sarcoma 180 tumour cells (each 5×10^6cells) were subcutaneously implanted into each mouse at the armpit. 24 hours after this, a phosphate buffered physiological solution of sodium chloride (each 0.2 ml) was intraperitoneally administered to each mouse, a given amount of one of the substances DC-45-A, DC-45-B1 and DC-45-B2 being contained in each solution so that a different substance is administered to each group of mice. The said phosphate buffer contained NaCl (0.8 g/dl), KCl (0.02 g/dl), […] (1.15 g/dl) and KH2 PO4 (0.02 g/dl). For comparison purpose, a similar phosphate buffered solution containing mitomycin C (0.2 ml) was abdominally administered to the mice of another group 24 hours after the implantation of the tumour cells. Table 3 indicates the volume of the tumour (mean value in mm^3) and T/C (mean value; the tumour volume of the animal treated with the test compound/the tumour volume of the control animal treated with 0.2 ml of the phosphate buffered solution of sodium chloride, both being determined 7 days after the implantation.

[2] = system: Lymphocytic leukaemia P-388 tumour; test: Anti-tumour activity on Lymphocytic leukaemia P-388 tumour; assay type: in vivo, mice (male; CDF1 strain); settings: 5.6 mg/kg, abdominally
Description: Mice (male; CDF1 strain; weight about 22 g; each group consisting of 5 mice) were used as the test animals. Lymphocytic leukaemia P-388 tumour cells (each 1×10^6 cells) were intraperitoneally implanted into each mouse. 24 hours after this, a phosphate buffered physiological solution of sodium chloride (each 0.2 ml) was intraperitioneally injected once into each mouse, a given amount of one substance being contained in each solution so that a different substance is administered to each group of mice. For comparison, a similar phosphate buffered solution of sodium chloride containing mitomycin C was admnistered abdominally to each mouse of a further control group. Table 4 indicates the average survival time in days and T/C (mean value of the survival days of the animals treated with the test compound/mean value of the survival days of the control animals treated with 0.2 ml of the phosphate buffered solution of sodium chloride).

For `CO[C@@]12[C@H](COC(N)=O)C3=C(C(=O)C(C)=C(N)C3=O)N1C[C@@H]1N[C@@H]12` [Mitomycin C, mitomycin C], the “T/C (tumour volume)” value [1] was 0.20, the “Volume of tumour (mean value)” value [1] was 282 mm^3 and the Survival days [2] was 18.0 ± 1.4 days. The “T/C (survival days)” value [2] was 1.88.
